From PMC11035424 (2024)

What was measured:
[1] = system: c-myc (DNA, G4) TGAGGGTGGGTAGGGTGGGTAA; experiment: ITC; settings: K+ (50 mM potassium phosphate); 50 mM KH2PO4-K2HPO4 pH 7.0, 25 °C; abstract misprints exponent as 10^-6
[2] = system: TA-core (DNA, G4) TAGGGTTAGGGTTAGGGTTAGGG; experiment: CD melting at 265 nm; settings: K+ (50 mM potassium phosphate); 50 mM potassium phosphate pH 7.0; 1.5 µM DNA, 3.0 µM compound
[3] = system: VEGF (DNA, G4) CGGGGCGGGCCTTGGGCGGGGT; experiment: CD melting at 265 nm; settings: K+ (50 mM potassium phosphate); 50 mM potassium phosphate pH 7.0; 1.5 µM DNA, 3.0 µM compound; printed ≧
[4] = system: TA-core (DNA, G4) TAGGGTTAGGGTTAGGGTTAGGG; experiment: ITC; settings: K+ (50 mM potassium phosphate); 50 mM KH2PO4-K2HPO4 pH 7.0, 25 °C
[5] = system: dsoligo (12-ss(-)/12-ss(+)) (DNA, duplex) GCGAAACCTCCC/GGGAGGTTTCGC; experiment: pulldown on streptavidin magnetic beads, gel electrophoresis; settings: K+ (50 mM potassium phosphate); 5 µM compound, 5 µM DNA, pH 7.0, room temperature
[6] = system: c-myc (DNA, G4) TGAGGGTGGGTAGGGTGGGTAA; experiment: as above; settings: K+ (50 mM potassium phosphate); 5 µM compound, 5 µM DNA, pH 7.0, room temperature
[7] = system: dsoligo (12-ss(-)/12-ss(+)) (DNA, duplex) GCGAAACCTCCC/GGGAGGTTTCGC; experiment: UV melting at 260 nm; settings: K+ (50 mM potassium phosphate); 50 mM potassium phosphate pH 7.0; 1.5 µM DNA, 3.0 µM compound
[8] = system: c-myc-mut95 (DNA, single strand) GAGGTATTTCGGGAGGTTTCGCCACCTTCTTCACTCTCTTCACTCTCTTCATAAGCGCCCCTCCCGGGTTCCCCGGTATTCGTGGTGTTCGGAGT; experiment: pulldown on streptavidin magnetic beads, qPCR; settings: K+ (50 mM potassium phosphate); 50 mM potassium phosphate pH 7.0, room temperature; immobilised compound; 2 fmol DNA
[9] = system: c-myc120 (DNA, G4) GAGGTATTTCGGGAGGTTTCGCCCCACGCCCTCTGCTTTGGGAACCCGGGAGGGGCGCTTATGGTGAGGGTGGGGAGGGTGGGGAAGGGGGAGGAGAGCGGTATTCGTGGTGTTCGGAGT; experiment: pulldown on streptavidin magnetic beads, qPCR; settings: K+ (50 mM potassium phosphate); 50 mM potassium phosphate pH 7.0, room temperature; immobilised compound; more than 50% recovery
[10] = system: c-myc (DNA, G4) TGAGGGTGGGTAGGGTGGGTAA; experiment: absorption titration (383 nm, Stootman fit); settings: K+ (50 mM potassium phosphate); 50 mM KH2PO4-K2HPO4 pH 7.0; 8 µM compound
[11] = system: VEGF (DNA, G4) CGGGGCGGGCCTTGGGCGGGGT; experiment: ITC; settings: K+ (50 mM potassium phosphate); 50 mM KH2PO4-K2HPO4 pH 7.0, 25 °C
[12] = system: c-myc (DNA, G4) TGAGGGTGGGTAGGGTGGGTAA; experiment: CD melting at 265 nm; settings: K+ (50 mM potassium phosphate); 50 mM potassium phosphate pH 7.0; 1.5 µM DNA, 3.0 µM compound; printed ≧; printed Tms differ by 6.6
[13] = system: c-kit (DNA, G4) AGGGAGGGCGCTGGGAGGAGGG; experiment: ITC; settings: K+ (50 mM potassium phosphate); 50 mM KH2PO4-K2HPO4 pH 7.0, 25 °C

SMILES: CN1CCCNC(=O)CC[C@H](NC(=O)CCOCCOCCOCCOCCNC(=O)CCCC[C@@H]2SC[C@@H]3NC(=O)N[C@@H]32)C(=O)NCCCN(C)CCCN2C(=O)c3ccc4c5c(ccc(c35)C2=O)C(=O)N(CCC1)C4=O
- K [1]: 3.9e+06 M⁻¹
- ΔTm [2]: 4.8 °C
- ΔTm [3]: > 7.0 °C
- K [4]: 2.1e+06 M⁻¹
- binding [5]: no
- binding [6]: yes
- ΔTm [7]: 0.1 °C
- binding [8]: no
- binding [9]: yes
- K [10]: 8.9e+06 M⁻¹
- K [11]: 820000 M⁻¹
- ΔTm [12]: > 5.4 °C
- K [13]: 200000 M⁻¹
